According to PubChem BioAssay AID1620 (Sanford-Burnham Center for Chemical Genomics, 2009):
Activity calls are given as the source filed them.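 How the source made its calls: active means toxicity graded low, moderate or high, meaning less radioactive sulfur built into protein than in solvent-only controls; inactive means the rest.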

Tested on: HeLa, 35S-Met/Cys protein incorporation toxicity, 3 h
Assay: 35S-Met/Cys incorporation reduction in HeLa – HeLa cells, cytotoxicity control for PMI inhibitor project, late-stage follow-up (AID 1620)

Row | SMILES | outcome
1 | COc1cc(N=c2ssnc2Cl)cc(OC)c1 | inactive; no toxicity
2 | O=C(O)CCn1cc(C=C2C(=O)NC(=S)NC2=O)c(-c2cccc(Br)c2)n1 | inactive; no toxicity
3 | O=C(O)c1ccccc1NS(=O)(=O)c1cccc(-n2sc3ccccc3c2=O)c1 | active; high toxicity
4 | Clc1nss/c1=N\c1nccs1 | inactive; no toxicity
5 | Cc1cccc(-n2sc3ccccc3c2=O)c1 | active; moderate toxicity
6 | Cc1ccc(-n2sc3ccccc3c2=O)cc1S(=O)(=O)N1CCCCC1 | active; moderate toxicity
7 | O=c1c2ccccc2sn1-c1cccc(S(=O)(=O)Nc2ccc(Cl)cc2)c1 | active; moderate toxicity
8 | CC(C)(C)c1ccc(N=c2ssnc2Cl)cc1 | active; moderate toxicity
9 | O=c1c2ccccc2sn1-c1cc(S(=O)(=O)N2CCOCC2)ccc1N1CCOCC1 | active; moderate toxicity
10 | Cc1ccc(C)c(-n2sc3ccccc3c2=O)c1 | active; moderate toxicity
11 | O=c1c2ccccc2sn1-c1cccc(I)c1 | active; highly toxic
12 | O=c1c2ccccc2sn1-c1ccccc1 | inactive; no toxicity
13 | Clc1ccc(N=c2ssnc2Cl)cc1Cl | active; highly toxic
14 | O=c1c2ccccc2sn1-c1ccc(Cl)c(S(=O)(=O)N2CCOCC2)c1 | active; moderate toxicity
15 | Cc1cccc(-n2sc3cc(F)ccc3c2=O)c1C | active; moderate toxicity
16 | CN(C)S(=O)(=O)c1cccc(-n2sc3ccccc3c2=O)c1 | active; moderate toxicity
17 | O=c1c2cc(F)ccc2sn1-c1ccccc1 | active; moderate toxicity
18 | COc1cc(N=c2ssnc2Cl)cc(OC)c1OC | inactive; no toxicity
19 | O=c1c2ccc(O)cc2sn1C1CCCC1 | inactive; no toxicity
20 | Cc1ccc(N=c2ssnc2Cl)nc1 | active; highly toxic
21 | CN(C)c1ccc(N=c2ssnc2Cl)cc1 | active; moderate toxicity

Row | SMILES | outcome
22 | O=c1c2c([N+](=O)[O-])cc([N+](=O)[O-])cc2sn1-c1ccc(F)c(Cl)c1 | inactive; no toxicity
23 | COc1cc(N=c2ssnc2Cl)c(OC)cc1Cl | active; low toxicity
24 | COc1cc(-c2nc(=S)[nH][nH]2)cc(OC)c1OC | inactive; no toxicity
25 | Cc1ccc(C)n1-c1nc(=S)[nH][nH]1 | inactive; no toxicity
26 | Clc1cccc(N=c2ssnc2Cl)c1 | active; low toxicity
27 | O=c1c2c([N+](=O)[O-])cc([N+](=O)[O-])cc2sn1-c1ccc(F)cc1 | active; low toxicity
28 | Clc1nssc1=Nc1ccccc1 | inactive; no toxicity
29 | Cc1ccc(C)c(-n2sc3cc(F)ccc3c2=O)c1 | active; high toxicity
30 | O=C1c2ccccc2SC1c1ccccc1 (stereo not drawn) | active; low toxicity
31 | O=[N+]([O-])c1ccc(N=c2ssnc2Cl)c2ccccc12 | active; low toxicity
32 | Clc1nss/c1=N\c1nc2ccccc2s1 | active; highly toxic
33 | COc1ccc(N=c2ssnc2Cl)cc1OC | active; highly toxic
34 | S=c1nc(C2COc3ccccc3O2)[nH][nH]1 (stereo not drawn) | inactive; no toxicity
35 | N#Cc1ccc(N=c2ssnc2Cl)cc1 | inactive; no toxicity
36 | O=c1c2c([N+](=O)[O-])cc([N+](=O)[O-])cc2sn1-c1ccccc1F | active; low toxicity
37 | O=c1c2ccc(F)cc2sn1-c1cc(Cl)ccc1Cl | active; highly toxic
38 | Cc1ccc(C)c(-n2sc3ccc(F)cc3c2=O)c1 | active; moderate toxicity
39 | FC(F)(F)c1ccc(N=c2ssnc2Cl)cc1 | active; moderate toxicity
40 | O=[N+]([O-])c1ccc(N=c2ssnc2Cl)c([N+](=O)[O-])c1 | inactive; no toxicity
41 | O=c1c2ccccc2sn1-c1cccc(Cl)c1 | active; highly toxic
42 | CN(C)c1cccc(N=c2ssnc2Cl)c1 | active; highly toxic

Row | SMILES | outcome
43 | Cc1ccc(N=c2ssnc2Cl)cc1C | active; moderate toxicity
44 | O=C(NCc1ccccc1)c1cccc(-n2sc3ccccc3c2=O)c1 | inactive; no toxicity
45 | Clc1nss/c1=N\c1nncs1 | active; moderate toxicity
46 | COc1cc([N+](=O)[O-])ccc1N=c1ssnc1Cl | active; moderate toxicity
47 | S=c1nc(-c2cccc(Cl)c2)[nH][nH]1 | inactive; no toxicity
48 | Cc1ccc(C)c(N2Cc3ccccc3C2=O)c1 | active; low toxicity
49 | S=c1nc(-c2ccccc2Br)[nH][nH]1 | inactive; no toxicity
50 | O=C(O)c1cccc(-n2sc3ccccc3c2=O)c1 | active; moderate toxicity
51 | O=c1c2ccccc2sn1-c1ccc2ccccc2c1 | active; high toxicity
52 | Cc1ccnc(-n2sc3ccccc3c2=O)n1 | inactive; no toxicity
53 | Cc1cccc(N=c2ssnc2Cl)c1 | active; moderate toxicity
54 | O=c1c2ccccc2sn1-c1cccc(C(F)(F)F)c1 | active; highly toxic
55 | Cc1ccc(C)c(-n2[nH]c3ccccc3c2=O)c1 | inactive; no toxicity
56 | CCc1cc(CC)c(N=c2ssnc2Cl)c(CC)c1 | active; highly toxic
57 | O=c1c2ccccc2sn1-c1nccs1 | inactive; no toxicity
58 | CCOc1ccc(-c2nc(=S)[nH][nH]2)cc1 | inactive; no toxicity
59 | Cc1ccc(N=c2ssnc2Cl)cc1[N+](=O)[O-] | active; moderate toxicity
60 | O=c1c2ccccc2sn1-c1ccc(F)cc1 | active; moderate toxicity
61 | Cc1ccc(C=Nn2c(-c3ccncc3)n[nH]c2=S)cc1 | inactive; no toxicity
62 | Clc1nssc1=Nc1ccc(Br)cc1 | active; high toxicity
63 | Cc1ccc(N=c2ssnc2Cl)cc1 | inactive; no toxicity

Row | SMILES | outcome
64 | OCc1ccccc1N=c1ssnc1Cl | inactive; no toxicity
65 | COC(=O)c1cccc(-n2sc3ccccc3c2=O)c1 | active; moderate toxicity
66 | Oc1ccc(N=c2ssnc2Cl)cc1 | inactive; no toxicity
67 | CCSc1n[nH]c(=S)s1 | inactive; no toxicity
68 | CN(C)c1cccc(-n2sc3ccccc3c2=O)c1 | inactive; no toxicity
69 | COc1cccc(-n2sc3ccccc3c2=O)c1 | active; low toxicity
70 | COc1ccc(OC)c(N=c2ssnc2Cl)c1 | inactive; no toxicity
71 | Nc1ccccc1N=c1ssnc1Cl | inactive; no toxicity
72 | COc1ccc(-c2nc(=S)[nH][nH]2)cc1 | inactive; no toxicity
73 | Cc1ccc(N=c2ssnc2Cl)c([N+](=O)[O-])c1 | active; low toxicity
74 | Clc1ccc(Nc2ccccc2N=c2ssnc2Cl)cc1 | active; highly toxic
75 | Clc1ccc(N=c2ssnc2Cl)cc1 | active; highly toxic
76 | COc1ccc(-c2nc(=S)[nH][nH]2)cc1OC | inactive; no toxicity
77 | Cc1[nH]n(-c2ccccc2)c(=S)c1C=Nc1cccc([N+](=O)[O-])c1 | inactive; no toxicity
78 | O=c1c2ccccc2sn1-c1ccc(Cl)cc1 | active; highly toxic
79 | COc1ccc2c(=O)n(C3CCCC3)sc2c1 | inactive; no toxicity
80 | N#CC1=C2SCN(Cc3ccccc3)CN2C(=O)CC1c1ccc2c(c1)OCO2 (stereo not drawn) | inactive; no toxicity
81 | S=c1nc(-c2cccc(Br)c2)[nH][nH]1 | inactive; no toxicity
82 | O=c1c2ccccc2sn1-c1cc(S(=O)(=O)N2CCOCC2)ccc1N1CCCC1 | active; moderate toxicity
83 | Cc1c(Cl)cccc1-n1sc2cc([N+](=O)[O-])cc(OCC(F)(F)F)c2c1=O | active; low toxicity
